What was measured:
[1] = system: histamine-induced pruritus; assay: Scratch test, histamine-induced pruritus, simultaneous intradermal injection of compound; type: in vivo, mice; conditions: 10 μM compound injected simultaneously with 500 μg/site histamine, 30 minutes, histamine only about 152, FIG. 11
Method: In order to confirm reactions to pruritus-inducing substances such as histamine or serotonin in the present invention, a behavior experiment was conducted. In order to induce scratching, histamine and serotonin which are known to induce itchy sensation in humans were used. Here, histamine or serotonin was diluted with sterilized saline solution. On the day before the experiment, experimental animals were anaesthetized by mixing zolitel and rompun at a ratio of 1:4 and injecting 1 mL/kg thereof, and hair on the nape areas of a 1.5 cm×1.5 cm square was removed using a clipper on the nape of experimental animals. On the day of the experiment, a box of 10 cm×20 cm×15 cm dimensions was produced and mice were stabilized for 30 minutes therein. Thereafter, 100 μL of solvents or the experimental substance was applied on the back of the neck of mice, and after 30 minutes, 50 μL of pruritus-inducing substances (500 μg/site of histamine or 10 μg/site of serotonin) was injected at the back of the neck of experimental animals via intradermal injection. Next, reactions of experimental animals were video-recorded for 30 minutes, and a scratch test was conducted by counting up and down of a hind paw of an experimental animal to the injected area in the back of the neck as one scratch. […]
As described in Experimental Example 4, in order to induce scratching, experimental animals in the control group were injected with 500 μg/site of histamine at the back of the neck via intradermal injection, and along with the histamine, the experimental group was simultaneously injected with 10 μM isoeugenol (mixture of cis and trans, 82 ng) and 10 μM methyleugenol (89 ng) as representative eugenol derivatives, as well as 10 μM eugenol (82 ng). Thereafter, the reactions of experimental animals were video-recorded for 30 minutes, and a scratch test was conducted by counting the action of going up and down of a hind paw of an experimental animal to the injected area in the back of the neck as one scratch.

[2] = system: atopic dermatitis animal models (oxalozone-induced); assay: Visual inspection of dermal recovery in atopic dermatitis animal models; type: in vivo, balb/c nude mice; conditions: 200 μL of 3 wt % eugenol cream, same time of a day for a week, FIG. 2
Excerpt: 7-week-old male C57/BL6 mice were used in the present experiment, and in order to produce atopic dermatitis models, 7-week-old male balb/c nude mice were purchased from Orient Bio (Korea) and used. The method described in the manuscript of Kuraishi et al., presented the original form of mouse models developed in the present invention (Kuraishi et al., 1995). The group consisting of male BL6/C57 mice weighing 20 g to 23 g was used in the experiment. The experiment proceeded after experimental animals were accustomed to the conventional environment of 23±2° C. and 55±15% humidity for 3 days, in which light was constrained from 8 pm to 8 am, and were given ad libitum access to food and water. Atopic dermatitis animal models were produced with reference to Hatano et al. (2011), and it is known that TRPV1 is mediated in the developmental mechanism. Particularly, balb/c nude mice were used to produce the atopic dermatitis animal models. In the first two days, 50 μL of 5% oxalozone was treated to sensitize the back of the neck of experimental animals, and a week of recovery followed. In the next 4 weeks, 60 μL of 0.5% oxalozone was treated for a total of 12 times to complete atopic dermatitis animal models (FIG. 1). […]

[3] = system: histamine-induced pruritus; assay: Scratch test, histamine-induced pruritus, cream applied; type: in vivo, mice; conditions: histamine 500 μg intradermal
Excerpt: (§1) 7-week-old male C57/BL6 mice were used in the present experiment, and in order to produce atopic dermatitis models, 7-week-old male balb/c nude mice were purchased from Orient Bio (Korea) and used. The method described in the manuscript of Kuraishi et al., presented the original form of mouse models developed in the present invention (Kuraishi et al., 1995). The group consisting of male BL6/C57 mice weighing 20 g to 23 g was used in the experiment. The experiment proceeded after experimental animals were accustomed to the conventional environment of 23±2° C. and 55±15% humidity for 3 days, in which light was constrained from 8 pm to 8 am, and were given ad libitum access to food and water. In order to confirm reactions to pruritus-inducing substances such as histamine or serotonin in the present invention, a behavior experiment was conducted. In order to induce scratching, histamine and serotonin which are known to induce itchy sensation in humans were used. Here, histamine or serotonin was diluted with sterilized saline solution. […] Next, reactions of experimental animals were video-recorded for 30 minutes, and a scratch test was conducted by counting up and down of a hind paw of an experimental animal to the injected area in the back of the neck as one scratch. […]

[4] = system: serotonin-induced pruritus; assay: Scratch test, serotonin-induced pruritus, cream applied; type: in vivo, mice; conditions: serotonin 10 μg
Excerpt: as §1

[5] = system: mechanical pain; assay: von-Frey test, acute mechanical pain reactions; type: in vivo, mice; conditions: 3 wt % eugenol
Method: However, effects of blocking pain by blocking Na ion channels are induced by blocking all the dermal sensory information and thus are non-specific phenomena. Therefore, von-Frey test was conducted to examine whether antipruritic effects are induced by reduced excitation via blocking voltage-dependent Na ion channels of sensory nerves by confirming whether eugenol at a pruritus-effective concentration blocks pain reactions. With reference to Chaplan et al. (1994), hind paws of experimental animals were stimulated with von-Frey filaments (0.02 g to 4 g), and 50% avoidance reactions were measured. Through this process, avoidance reactions to mechanical stimulations were measured and assessed as a reaction threshold.

[6] = system: heat pain (capsaicin receptors); assay: Hargreaves test, acute heat pain reactions; type: in vivo, mice; conditions: 3 wt % eugenol compared to the base cream
Method: In order to examine whether 3 wt % eugenol acts on capsaicin receptors and effects behavioral reactions to heat stimulation, Hargreaves test was conducted. With reference to Hargreaves et al. (1988), heat stimulation by light was delivered to a hind paw of a subject, and the corresponding avoidance reaction time was measured.

[7] = biological target: TRPV1 (Homo sapiens, UniProt Q8NER1); conditions: high concentration; cited from earlier work
[8] = cited from earlier work

TRPV1, sequence (Q8NER1 whole entry, species assumed): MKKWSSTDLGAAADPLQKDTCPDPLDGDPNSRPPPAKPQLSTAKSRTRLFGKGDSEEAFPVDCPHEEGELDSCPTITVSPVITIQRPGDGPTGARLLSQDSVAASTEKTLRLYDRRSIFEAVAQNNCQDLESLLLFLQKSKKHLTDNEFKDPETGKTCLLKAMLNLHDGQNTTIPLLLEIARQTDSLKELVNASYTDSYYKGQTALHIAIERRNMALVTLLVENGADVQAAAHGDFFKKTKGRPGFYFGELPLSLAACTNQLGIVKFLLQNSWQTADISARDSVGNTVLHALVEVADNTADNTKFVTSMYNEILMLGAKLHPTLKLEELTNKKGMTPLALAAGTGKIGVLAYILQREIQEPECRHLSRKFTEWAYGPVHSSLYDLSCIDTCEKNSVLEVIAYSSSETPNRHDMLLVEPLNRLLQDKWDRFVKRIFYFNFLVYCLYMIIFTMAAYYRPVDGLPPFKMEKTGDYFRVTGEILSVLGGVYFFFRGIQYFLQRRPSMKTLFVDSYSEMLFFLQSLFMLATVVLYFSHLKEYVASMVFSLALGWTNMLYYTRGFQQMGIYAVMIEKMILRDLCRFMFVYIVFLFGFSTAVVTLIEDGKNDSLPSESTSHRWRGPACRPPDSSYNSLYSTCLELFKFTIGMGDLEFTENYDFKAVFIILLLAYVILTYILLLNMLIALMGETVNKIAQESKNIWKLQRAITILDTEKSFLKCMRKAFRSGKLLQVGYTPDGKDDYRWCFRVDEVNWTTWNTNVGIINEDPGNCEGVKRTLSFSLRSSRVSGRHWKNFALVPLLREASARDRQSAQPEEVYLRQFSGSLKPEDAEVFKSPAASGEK

## CC=Cc1ccc(O)c(OC)c1 (racemic) [isoeugenol, (E) or (Z)-2-methoxy-4-(prop-1-enyl)phenol]
[1]
  number of scratching on average: about 80 times

## C=CCc1ccc(O)c(OC)c1 [eugenol, 4-allyl-2-methoxyphenol]
[2]
  dermal recovery from atopic dermatitis (visual inspection): recovered skin to the normal level
[3]; 3 wt % eugenol cream, 30 minutes
  reduction of pruritus reactions: at least 40%
[3]; 10 wt % eugenol cream
  blocking effects on histamine-dependent pruritus: increased blocking effects on histamine-dependent pruritus
[4]; 100 μL of 3 wt % eugenol
  antipruritic effects on serotonin-induced pruritus: antipruritic effects were not observed
[4]; 100 μL of 10 wt % eugenol
  antipruritic effects on serotonin-induced pruritus: showed blocking of serotonin-induced pruritus
[1]
  number of scratching on average: about 45 times
[5]
  mechanical pain, 50% avoidance reaction threshold (von-Frey): did not show a significant difference
[6]
  avoidance reaction in response to heat pain (Hargreaves): significantly increased avoidance reaction
[7]
  concentration at which TRPV1 is activated: ≥ 1 mM
[8]
  solubility in organic solvents: high
  solubility in water: low

## C=CCc1ccc(OC)c(OC)c1 [methyleugenol]
[1]
  number of scratching on average: 99 times

From patent US20160256421A1, “COMPOSITION CONTAINING EUGENOL AS ACTIVE INGREDIENT FOR PREVENTING OR TREATING ATOPIC DERMATITIS” (SEOUL NATIONAL UNIVERSITY R&DB FOUNDATION, priority 2013, published 2016)
